We go through four molecules from ChEMBL document CHEMBL1817560, “Selectivity of kinase inhibitor fragments” (J Med Chem, 2011).

For test [1], the target named is Tyrosine-protein kinase SYK (Homo sapiens, UniProt P43405). The test is described as follows: Inhibition of SYK expressed in Escherichia coli or baculovirus-infected insect cells by TR-FRET assay.
The target of test [2] is T1, Inhibitor of nuclear factor kappa-B kinase subunit beta (Homo sapiens, UniProt O14920).
T1 sequence (O14920 whole entry): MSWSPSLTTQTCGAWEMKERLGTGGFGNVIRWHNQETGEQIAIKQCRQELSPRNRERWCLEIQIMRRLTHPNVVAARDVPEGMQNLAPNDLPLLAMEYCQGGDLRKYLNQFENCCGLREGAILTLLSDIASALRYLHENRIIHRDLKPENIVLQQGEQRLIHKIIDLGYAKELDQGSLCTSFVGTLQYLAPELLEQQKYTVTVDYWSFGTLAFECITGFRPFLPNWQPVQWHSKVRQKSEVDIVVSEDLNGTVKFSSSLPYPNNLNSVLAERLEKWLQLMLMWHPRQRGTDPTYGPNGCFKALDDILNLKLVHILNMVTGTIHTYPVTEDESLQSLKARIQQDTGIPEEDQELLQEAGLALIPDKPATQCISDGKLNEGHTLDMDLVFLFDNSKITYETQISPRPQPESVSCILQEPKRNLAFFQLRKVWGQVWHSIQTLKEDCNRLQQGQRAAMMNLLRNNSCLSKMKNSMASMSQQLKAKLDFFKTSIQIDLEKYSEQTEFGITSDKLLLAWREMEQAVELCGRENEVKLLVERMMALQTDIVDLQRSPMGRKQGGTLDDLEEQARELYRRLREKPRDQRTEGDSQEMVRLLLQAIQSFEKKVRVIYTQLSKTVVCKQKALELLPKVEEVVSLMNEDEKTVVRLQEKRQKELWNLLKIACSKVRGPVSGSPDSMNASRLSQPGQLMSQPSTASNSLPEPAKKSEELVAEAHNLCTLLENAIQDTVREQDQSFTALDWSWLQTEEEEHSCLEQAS
The test is described as follows: biochemical. The class given is cell-based.

For test [3], the target named is Mitogen-activated protein kinase 8 (Homo sapiens, UniProt P45983). The test is described as follows: Inhibition of JNK1 expressed in Escherichia coli or baculovirus-infected insect cells by TR-FRET assay.
Sequence of Mitogen-activated protein kinase 8 (P45983 whole entry): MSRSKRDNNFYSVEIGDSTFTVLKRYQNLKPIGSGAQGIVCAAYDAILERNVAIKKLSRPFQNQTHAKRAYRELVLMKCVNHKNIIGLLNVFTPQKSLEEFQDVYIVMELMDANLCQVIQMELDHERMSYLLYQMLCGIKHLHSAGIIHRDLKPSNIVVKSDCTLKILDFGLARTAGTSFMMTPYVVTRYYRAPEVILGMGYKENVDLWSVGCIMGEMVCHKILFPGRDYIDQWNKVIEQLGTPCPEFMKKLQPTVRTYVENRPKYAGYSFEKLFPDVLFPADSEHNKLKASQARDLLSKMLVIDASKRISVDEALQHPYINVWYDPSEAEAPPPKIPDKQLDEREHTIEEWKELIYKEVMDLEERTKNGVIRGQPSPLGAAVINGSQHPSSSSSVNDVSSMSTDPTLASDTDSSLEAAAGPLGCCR
Test [4] deals with RAC-alpha serine/threonine-protein kinase (Homo sapiens, UniProt P31749). The test can be described thus: Inhibition of AKT1 expressed in Escherichia coli or baculovirus-infected insect cells by scintillation proximity assay.
Sequence of RAC-alpha serine/threonine-protein kinase (P31749 whole entry): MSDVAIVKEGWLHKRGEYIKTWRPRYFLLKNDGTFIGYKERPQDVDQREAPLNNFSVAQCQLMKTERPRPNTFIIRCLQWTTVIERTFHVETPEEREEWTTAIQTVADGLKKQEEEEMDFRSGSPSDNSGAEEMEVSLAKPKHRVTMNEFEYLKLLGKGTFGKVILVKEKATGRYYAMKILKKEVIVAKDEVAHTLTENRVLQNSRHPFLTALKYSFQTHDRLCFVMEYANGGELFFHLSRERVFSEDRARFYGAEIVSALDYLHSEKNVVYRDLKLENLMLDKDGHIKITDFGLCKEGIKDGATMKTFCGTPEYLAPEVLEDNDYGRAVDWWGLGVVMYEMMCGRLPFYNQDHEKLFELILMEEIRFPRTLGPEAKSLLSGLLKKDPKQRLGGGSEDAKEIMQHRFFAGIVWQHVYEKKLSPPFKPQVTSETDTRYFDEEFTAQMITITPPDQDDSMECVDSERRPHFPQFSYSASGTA
For test [5], the target named is Mitogen-activated protein kinase 14 (Homo sapiens, UniProt Q16539). The test is described as follows: Inhibition of p38alpha expressed in Escherichia coli or baculovirus-infected insect cells by TR-FRET assay.
Sequence of Mitogen-activated protein kinase 14 (Q16539 whole entry): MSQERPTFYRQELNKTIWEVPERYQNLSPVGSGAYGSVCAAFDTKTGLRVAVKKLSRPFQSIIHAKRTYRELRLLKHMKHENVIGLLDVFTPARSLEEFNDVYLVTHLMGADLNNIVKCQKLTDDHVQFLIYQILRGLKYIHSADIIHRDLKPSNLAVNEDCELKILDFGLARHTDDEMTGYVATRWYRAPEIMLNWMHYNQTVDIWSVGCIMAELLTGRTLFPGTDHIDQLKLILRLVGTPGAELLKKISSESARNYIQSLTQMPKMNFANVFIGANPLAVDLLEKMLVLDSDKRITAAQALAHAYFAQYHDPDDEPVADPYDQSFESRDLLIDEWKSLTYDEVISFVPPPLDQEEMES

In the case of `O=C(Nc1ccccc1)Nc1ccccc1`, the IC50 in test [1] was greater than 660 µM.

As to `c1cnc2[nH]ccc2c1`, the IC50 was greater than 667 µM in test [2] (read-out: IC50); greater than 631 µM in test [2] (read-out: pIC50 (converted)); greater than 667 µM in test [3] (read-out: IC50); greater than 631 µM in test [3] (read-out: pIC50 (converted)); greater than 400 µM in test [4] (read-out: IC50); greater than 398 µM in test [4] (read-out: pIC50 (converted)).

For `c1ccc2[nH]ncc2c1` [INDAZOLE], the IC50 in test [4] (read-out: IC50) was greater than 400 µM; in test [4] (read-out: pIC50 (converted)), greater than 398 µM.

As for `c1ccc(Nc2ncccn2)cc1`, the IC50 in test [5] (read-out: IC50) was greater than 667 µM; in test [5] (read-out: pIC50 (converted)), greater than 631 µM; in test [2] (read-out: IC50) it was greater than 667 µM; in test [2] (read-out: pIC50 (converted)), greater than 631 µM.
